Measured values taken from patent US12263199B2, “Use of Sida rhombifolia” (priority 2019, dated 2025).

Test system: 5-alpha reductase (5AR)
Experiment: Analysis of the ability of inhibition of 5AR activity (β-NADPH absorbance)
Assay type: biochemical, Sprague Dawley rats
Details: finasteride 100 uM, rat prostate enzyme source, 7.5 mM testosterone, 30 minutes
Experimental: In order to prepare the 5AR enzyme source, first, 15-week-old Sprague Dawley rats (obtained from Coretech) were kept under CO2 inhalation anesthesia, and then the prostate tissue was excised. After washing 200 mg of the excised tissue twice with PBS at pH 7.4, 10 ml of lysis buffer {20 mM sodium phosphate containing 0.32 M sucrose and 1 mM ethylenediaminetetraacetic acid (EDTA) at pH 6.5} was added, followed by homogenizing the mixture by a glass homogenizer. The homogenate was centrifuged at 4° C. and 5,000 rpm for 15 minutes to take the supernatant and quantify a protein using Brad Ford reagent, and then the protein was used as a 5AR enzyme source. The remaining homogenate was stored at −70° C.
The ability to inhibit 5AR activity was measured using the method of Nahata and Dixit {Andrologia, 46(6):592-601, 2014}. In a 96-well plate, the enzyme source (0.8 mg/ml protein) prepared as in 2-2, a solution obtained by dissolving the solvent extract prepared in 2-1. in methanol (50 ug/ml), 7.5 mM testosterone, and 300 uM β-NADPH were reacted at 37° C. Thereafter, absorbance according to the change in the amount of β-NADPH at 350 nm was measured every 5 minutes for a total of 30 minutes. The measurement value was calculated using a standard graph of β-NADPH, and the unit was expressed as pg/ml. […]

Q: For `CC(C)(C)NC(=O)[C@H]1CC[C@H]2[C@@H]3CC[C@H]4NC(=O)C=C[C@]4(C)[C@H]3CC[C@]12C` [finasteride], which “concentration of β-NADPH in the reaction solution at the end of the reaction (5AR activity inhibition)” value is on record?
A: concentration of β-NADPH increased compared to that in the negative control group
